Test results published in PMC12523282, “New 5,6-diphenyl-1,2,4-triazine-hydrazineylidene-phenoxy-1,2,3-triazole-acetamide derivatives as potent synthetic α-glucosidase inhibitors” (RSC Advances, 2025).

How the values were obtained:
α-glucosidase [1] = target: α-glucosidase; design: method as in PMID 31838286; settings: assay of template compounds B, Fig. 1 and Fig. 5; cited from earlier work
α-glucosidase [2] = target: T1, α-glucosidase (Saccharomyces cerevisiae, UniProt P53341); experiment: Anti-α-glucosidase assay (p-nitrophenyl-α-D-glucopyranoside substrate, absorbance 405 nm); type: biochemical; settings: for Inhibation: IC50 determination curve; for inhibition at 750 µM: read-out: In (%), inhibition percentage against α-glucosidase; for decrease of inhibitory activity relative to un-substituted derivative 13a: methyl group added to phenyl ring of 13a; for inhibitory activity, times more potent than acarbose: ratio of IC50 values vs acarbose
T1 construct: the yeast form of α-glucosidase, which was extracted from Saccharomyces cerevisiae; purchased Sigma-Aldrich; host or cells: Saccharomyces cerevisiae (extracted)
Procedure: After this time, the p-nitrophenyl-α-D-glucopyranoside (25 μL, 4 mM) was added to the latter plate and allowed to incubate at 37 °C for 20 min. […] The percentage of inhibition (% inhibition) for each sample was calculated using the formula “[(Abs control − Abs sample)/Abs control] × 100”, and IC50 values were obtained from non-linear regression curve using the Logit method.[24]

α-glucosidase [3] = target: T1, α-glucosidase; experiment: Kinetic study (Lineweaver–Burk method); type: biochemical; settings: Lineweaver–Burk plots
Procedure: Then, p-nitrophenyl-α-D-glucopyranoside at various concentrations (1–4 mM) was added to initiate the enzymatic reaction.
The type of inhibition mode was indicated by Lineweaver–Burk plots.

[4] = IC50 (from IC50 determination curves, supplement), logarithmic fit of inhibition vs Conc., unit inferred
[5] = IC50, yeast α-glucosidase, mean ± SD, at least three experiments

T1 sequence (P53341 whole entry): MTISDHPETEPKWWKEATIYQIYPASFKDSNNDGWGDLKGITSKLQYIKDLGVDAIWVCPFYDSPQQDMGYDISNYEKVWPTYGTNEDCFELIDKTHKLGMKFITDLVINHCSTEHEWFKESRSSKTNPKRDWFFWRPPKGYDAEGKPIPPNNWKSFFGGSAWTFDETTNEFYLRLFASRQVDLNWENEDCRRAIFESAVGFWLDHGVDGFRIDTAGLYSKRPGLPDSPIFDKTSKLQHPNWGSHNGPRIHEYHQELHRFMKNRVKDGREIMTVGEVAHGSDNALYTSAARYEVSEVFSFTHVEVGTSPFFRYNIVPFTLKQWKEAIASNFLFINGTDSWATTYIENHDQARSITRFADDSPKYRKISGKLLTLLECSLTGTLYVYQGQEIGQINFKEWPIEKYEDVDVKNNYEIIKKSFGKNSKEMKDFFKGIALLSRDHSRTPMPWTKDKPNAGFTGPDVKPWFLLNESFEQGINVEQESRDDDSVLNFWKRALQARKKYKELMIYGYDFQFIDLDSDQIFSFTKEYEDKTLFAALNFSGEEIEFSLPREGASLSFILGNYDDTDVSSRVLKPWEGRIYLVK

| Structure (SMILES) | IC50 (α-glucosidase [1]) [µM] | Inhibation (α-glucosidase [2]; Conc. 15 (unit not given)) | Inhibation (α-glucosidase [2]; Conc. 30 (unit not given)) | Inhibation (α-glucosidase [2]; Conc. 60 (unit not given)) | Inhibation (α-glucosidase [2]; Conc. 90 (unit not given)) | Inhibation (α-glucosidase [2]; Conc. 120 (unit not given)) | IC50 (α-glucosidase [2]; [4]) [µM] | inhibition at 750 µM (α-glucosidase [2]) [%] | IC50 (α-glucosidase [2]; [5]) [µM] | decrease of inhibitory activity relative to un-substituted derivative 13a (α-glucosidase [2]) [fold] | potency relative to 4-methoxy derivative 13f (α-glucosidase [2]; more potent than 13f) | inhibitory activity, times more potent than acarbose (α-glucosidase [2]) [fold] | effect of increasing inhibitor concentration on Vmax and Km (α-glucosidase [3]) | type of inhibition mode (α-glucosidase [3]) |
| --- | --- | --- | --- | --- | --- | --- | --- | --- | --- | --- | --- | --- | --- | --- |
| O=C(Cn1cc(COc2ccc(-c3nc4ccccc4[nH]3)cc2)nn1)Nc1ccccc1Cl [B (R = 2-Cl, n = 0)] | 70.6 | – | – | – | – | – | – | – | – | – | – | – | – | – |
| O=C(Cn1cc(COc2ccc(-c3nc4ccccc4[nH]3)cc2)nn1)Nc1ccccc1[N+](=O)[O-] [B (R = 2-Nitro, n = 0)] | 35 | – | – | – | – | – | – | – | – | – | – | – | – | – |
| O=C(Cn1cc(COc2ccc(-c3nc4ccccc4[nH]3)cc2)nn1)Nc1ccc(Br)cc1 [B (R = 4-Br, n = 0)] | 176 | – | – | – | – | – | – | – | – | – | – | – | – | – |
| O=C(Cn1cc(COc2ccc(-c3nc4ccccc4[nH]3)cc2)nn1)Nc1ccc(Cl)cc1 [B (R = 4-Cl, n = 0)] | 91.6 | – | – | – | – | – | – | – | – | – | – | – | – | – |
| COc1ccc(NC(=O)Cn2cc(COc3ccc(-c4nc5ccccc5[nH]4)cc3)nn2)cc1 [B (R = 4-OMe, n = 0)] | 112 | – | – | – | – | – | – | – | – | – | – | – | – | – |
| O=C(Cn1cc(COc2ccc(-c3nc4ccccc4[nH]3)cc2)nn1)Nc1ccccc1 [B (R = H, n = 0)] | 51.5 | – | – | – | – | – | – | – | – | – | – | – | – | – |
| O=C(Cn1cc(COc2ccc(-c3nc4ccccc4[nH]3)cc2)nn1)NCc1ccccc1 [B (R = H, n = 1)] | 121 | – | – | – | – | – | – | – | – | – | – | – | – | – |
| O=C(Cn1cc(COc2ccc(/C=N/Nc3nnc(-c4ccccc4)c(-c4ccccc4)n3)cc2)nn1)Nc1ccccc1 [Compound 13a, (E)-2-(4-((4-((2-(5,6-Diphenyl-1,2,4-triazin-3-yl)hydrazineylidene)methyl)phenoxy)methyl)-1H-1,2,3-triazol-1-yl)-N-phenylacetamide] | – | 76.53 | 81.33 | 89 | 93 | 94 | < 15 | 95 | – | – | – | – | – | – |
| Cc1ccccc1NC(=O)Cn1cc(COc2ccc(/C=N/Nc3nnc(-c4ccccc4)c(-c4ccccc4)n3)cc2)nn1 [Compound 13b, (E)-2-(4-((4-((2-(5,6-Diphenyl-1,2,4-triazin-3-yl)hydrazineylidene)methyl)phenoxy)methyl)-1H-1,2,3-triazol-1-yl)-N-(o-tolyl)acetamide] | – | 54.87 | 67 | 83 | 93 | – | 12.5 | 98 | 12.5 ± 0.21 | 15.6 | – | – | – | – |
| Cc1cccc(NC(=O)Cn2cc(COc3ccc(/C=N/Nc4nnc(-c5ccccc5)c(-c5ccccc5)n4)cc3)nn2)c1 [Compound 13c, (E)-2-(4-((4-((2-(5,6-Diphenyl-1,2,4-triazin-3-yl)hydrazineylidene)methyl)phenoxy)methyl)-1H-1,2,3-triazol-1-yl)-N-(m-tolyl)acetamide] | – | 74.8 | 80.67 | 93 | 96 | 97 | < 15 | 100 | – | 2.25 | – | – | – | – |
| Cc1ccc(NC(=O)Cn2cc(COc3ccc(/C=N/Nc4nnc(-c5ccccc5)c(-c5ccccc5)n4)cc3)nn2)c(C)c1 [Compound 13d, (E)-N-(2,4-Dimethylphenyl)-2-(4-((4-((2-(5,6-diphenyl-1,2,4-triazin-3-yl)hydrazineylidene)methyl)phenoxy)methyl)-1H-1,2,3-triazol-1-yl)acetamide] | – | 61.12 | 65.17 | 68 | 72 | 74 | < 15 | 75 | – | – | – | – | – | – |
| CCc1ccc(NC(=O)Cn2cc(COc3ccc(/C=N/Nc4nnc(-c5ccccc5)c(-c5ccccc5)n4)cc3)nn2)cc1 [Compound 13e, (E)-2-(4-((4-((2-(5,6-Diphenyl-1,2,4-triazin-3-yl)hydrazineylidene)methyl)phenoxy)methyl)-1H-1,2,3-triazol-1-yl)-N-(4-ethylphenyl)acetamide] | – | 69.6 | 82.93 | 95 | – | – | < 15 | 100 | – | – | around 3 fold | – | – | – |
| COc1ccc(NC(=O)Cn2cc(COc3ccc(/C=N/Nc4nnc(-c5ccccc5)c(-c5ccccc5)n4)cc3)nn2)cc1 [Compound 13f, (E)-2-(4-((4-((2-(5,6-Diphenyl-1,2,4-triazin-3-yl)hydrazineylidene)methyl)phenoxy)methyl)-1H-1,2,3-triazol-1-yl)-N-(4-methoxyphenyl)acetamide] | – | 56 | 72.67 | 89 | 98 | – | 10.9 | 100 | 10.9 ± 0.24 | – | – | – | – | – |
| O=C(Cn1cc(COc2ccc(/C=N/Nc3nnc(-c4ccccc4)c(-c4ccccc4)n3)cc2)nn1)Nc1ccccc1F [Compound 13g, (E)-2-(4-((4-((2-(5,6-Diphenyl-1,2,4-triazin-3-yl)hydrazineylidene)methyl)phenoxy)methyl)-1H-1,2,3-triazol-1-yl)-N-(2-fluorophenyl)acetamide] | – | 69.05 | 72.24 | 76 | 78 | – | < 15 | 79 | – | – | – | – | – | – |
| O=C(Cn1cc(COc2ccc(/C=N/Nc3nnc(-c4ccccc4)c(-c4ccccc4)n3)cc2)nn1)Nc1ccccc1Cl [Compound 13h, (E)-N-(2-Chlorophenyl)-2-(4-((4-((2-(5,6-diphenyl-1,2,4-triazin-3-yl)hydrazineylidene)methyl)phenoxy)methyl)-1H-1,2,3-triazol-1-yl)acetamide] | – | 75.34 | 79.31 | 83 | 86 | – | < 15 | 87 | – | – | – | ~3947 | – | – |
| O=C(Cn1cc(COc2ccc(/C=N/Nc3nnc(-c4ccccc4)c(-c4ccccc4)n3)cc2)nn1)Nc1cccc(Cl)c1 [Compound 13i, (E)-N-(3-Chlorophenyl)-2-(4-((4-((2-(5,6-diphenyl-1,2,4-triazin-3-yl)hydrazineylidene)methyl)phenoxy)methyl)-1H-1,2,3-triazol-1-yl)acetamide] | – | 53.4 | 74.73 | 84 | 98 | – | 11.7 | 100 | 11.7 ± 0.18 | – | – | – | – | – |
| O=C(Cn1cc(COc2ccc(/C=N/Nc3nnc(-c4ccccc4)c(-c4ccccc4)n3)cc2)nn1)Nc1ccc(Cl)cc1 [Compound 13j, (E)-N-(4-Chlorophenyl)-2-(4-((4-((2-(5,6-diphenyl-1,2,4-triazin-3-yl)hydrazineylidene)methyl)phenoxy)methyl)-1H-1,2,3-triazol-1-yl)acetamide] | – | 73.02 | 75.43 | 79 | 81 | – | < 15 | 83 | 0.12 ± 0.02 | – | – | – | decrease in both Vmax and Km values | uncompetitive α-glucosidase inhibitor |
| O=C(Cn1cc(COc2ccc(/C=N/Nc3nnc(-c4ccccc4)c(-c4ccccc4)n3)cc2)nn1)Nc1ccc(Br)cc1 [Compound 13k, (E)-N-(4-Bromophenyl)-2-(4-((4-((2-(5,6-diphenyl-1,2,4-triazin-3-yl)hydrazineylidene)methyl)phenoxy)methyl)-1H-1,2,3-triazol-1-yl)acetamide] | – | 49.91 | 56.12 | 60 | 65 | 67 | 15.3 | 69 | 15.3 ± 0.29 | – | – | – | – | – |
| O=C(Cn1cc(COc2ccc(/C=N/Nc3nnc(-c4ccccc4)c(-c4ccccc4)n3)cc2)nn1)Nc1ccccc1[N+](=O)[O-] [Compound 13l, (E)-2-(4-((4-((2-(5,6-Diphenyl-1,2,4-triazin-3-yl)hydrazineylidene)methyl)phenoxy)methyl)-1H-1,2,3-triazol-1-yl)-N-(2-nitrophenyl)acetamide] | – | 37.76 | 48.45 | 59 | 65 | 67 | 34.2 | 69 | 34.2 ± 0.57 | – | – | 21.9 | – | – |
| O=C(Cn1cc(COc2ccc(/C=N/Nc3nnc(-c4ccccc4)c(-c4ccccc4)n3)cc2)nn1)NCc1ccccc1 [Compound 13m, (E)-N-Benzyl-2-(4-((4-((2-(5,6-diphenyl-1,2,4-triazin-3-yl)hydrazineylidene)methyl)phenoxy)methyl)-1H-1,2,3-triazol-1-yl)acetamide] | – | 70 | 80 | 87 | 88.3 | 89 | – | 90 | – | – | – | – | – | – |
| O=C(Cn1cc(COc2ccc(/C=N/Nc3nnc(-c4ccccc4)c(-c4ccccc4)n3)cc2)nn1)NCCc1ccccc1 [Compound 13n, (E)-2-(4-((4-((2-(5,6-Diphenyl-1,2,4-triazin-3-yl)hydrazineylidene)methyl)phenoxy)methyl)-1H-1,2,3-triazol-1-yl)-N-phenethylacetamide] | – | 79.27 | 84.67 | 90 | 93 | 98 | < 15 | 100 | – | – | – | – | – | – |
